Assay results as given in patent US7655629B2, “Peptides and their use for the treatment of HIV infections” (priority 2002, dated 2010).
Entries after “also recorded” stand apart in the source; their conditions may differ. Positions of bridges follow the written chain, without caps; N, C: chain ends. Non-standard residues stand in square brackets, D forms with d. Residues, ends and D or L forms follow the SMILES beside them. No end group written: not given here. NMeL = CN[C@@H](CC(C)C)C(=O)O

Experiments:
HIV-1 NL4-3 DTV = settings: read-out: IC50 DTV, P4-CCR5 cells, peptide 2 h before infection, readout three days after infection
In short: (§1)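 P4-CCR5 cells (CD4, CCR5, CXCR4, HIV-1 promoter-driven β-galactosidase) pretreated 2 h with peptide, then infected with virus containing 1 ng p24 antigen and incubated overnight. Cells washed and cultured without peptide; three days post-infection infectivity read by chemiluminescent β-galactosidase assay, in quintuplicate.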

X4-tropic HIV-1 NL4-3 = settings: read-out: IC50 NL4-3; P4-CCR5 cells, HIV-1 NL4-3, peptide 2 h before infection, readout three days after infection
In short: as §1

[1] = target: T1, synthetic fusion peptide of HIV gp41 (Human immunodeficiency virus type 1 group M subtype B, UniProt P04578); experiment: Inhibition of fusion peptide-induced hemolysis; type: cell-based; settings: peptides at 1000, 100 and 10 μM preincubated with 100 μM fusion peptide, human erythrocytes, hemoglobin release
T1 construct: The fusion peptide is the very amino-terminal part of gp41 consisting of about 30 amino acid residues
T1 sequence (P04578 512-532): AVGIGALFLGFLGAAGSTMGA
Procedure: The synthetic fusion peptide of HIV gp41 causes concentration-dependent hemolysis which can be measured by hemoglobin released by erythrocytes.
Peptides and any other substance binding to the fusion peptide impair its potency to lyse erythrocytes by changing its structural properties. The inhibition of fusion peptide induced hemolysis was tested as follows: Blood from healthy donors was collected in citrate monovettes and the erythrocytes were extracted by a standard centrifugation and washing protocol known to the skilled person. The final erythrocyte-containing pellett was diluted 1:100 with phosphate-saline buffer. To the peptides (10, 100, or 1000 equivalents) 20 μl of a 100 μM fusion peptide solution in 10% DMSO were added and the solution was diluted to 100 μl with phosphate-buffered saline. A 60 min incubation at 37° C. was carried out. After the preincubation the samples were transferred to 96-well plates and 100 μl of the erythrocyte suspension were added and incubated for 60 min at 37° C. […] The 96-well plate is centrifuged 5 min at 2800 rpm and of the supernatant fluid 150 μl were transferred to a flat-bottom microtiter plate, and the absorbance was measured at 450 nm. The percentage hemolysis was calculated by: [(A450 of the peptide treated sample—A450 of buffer treated sample)/(A450 of Tween-20 treated sample—A450 of buffer treated sample)]×100%.

[2] = system: human monocytic THP-1 cells; experiment: Cytotoxicity on human cells, WST-1 assay; settings: 24 hours, 30, 100, 300 and 1000 μg/mL
Procedure: The cytotoxicity of peptides of the invention was tested by evaluating the viability of human monocytic THP-1 cells. Cytotoxic effects of the peptides were tested by their influence on metabolic activity by means of the WST-1 assay (Roche Diagnostics, Germany). THP-1 cells were incubated with test peptides in a 96-well plate (approx. 25,000 cells per well) for 24 hours in RPMI-1640 medium containing 25 mM L-glutamine and 10 volume % fetal calf serum at 37° C. in an atmosphere with 5 volume % CO2. Ten μl of a WST-1 solution was added to each cavity, and incubation of THP-1 cells was allowed for 2 further hours at corresponding conditions. Metabolically active THP-1 cells reduce WST-1, a light red tetrazolium salt, yielding a soluble yellow formazan salt. The amount of reduced WST-1 correlates directly to the number of living cells, and is measured photometrically at a wavelength of λ=450 nm using a microtiter plate reader (reference wavelength is 630 nm). As a positive control, the known cytotoxic substance cycloheximide was used at a concentration of 50 μg/ml; the cytotoxicity of cycloheximide was set to 100%. […] The cytotoxicity of VIRIP peptides was calculated using the formula Viability [%]=[A450 nm (peptide)−A450 nm (cycloheximide)]/[A450 nm (negative control)−A450 nm (cycloheximide)]*100 and was correlated to the averaged viability of untreated THP-1 cells. […]

[3] = Acute toxicity in mice after a single intravenous injection; type: in vivo, SCID-C.B 17-mice; settings: 927 mg per kg body weight
Procedure: Acute toxicity was evaluated with VIR-121 (LEAIPMSIPpEVAFNkPFVF) after a single intravenous injection into the tail vein of SCID-C.B 17-mice. A dose of 927 mg VIR-121 (SEQ ID NO. 2) dissolved in 13.6 ml 0.9 volume % sodium chloride solution per kg body weight (equivalent to 20.4 mg or 272 μL per mouse) was applied. Injection speed was dose within 15 seconds. […] As a control, 3 mice were each treated with a corresponding volume of vehicle (0.9 volume % NaCl). After 24 hours, the animals were sacrificed, dissected and inspected macroscopically. […] No findings were obtained from macroscopic necropsy compared to the control group.

[4] = target: gp41 of HIV-1 NL4-3 DTV (HIV-1 NL4-3 DTV); experiment: cell-based or functional assay
[5] = target: gp41 of HIV-1 NL4-3 (HIV-1 NL4-3); experiment: cell-based or functional assay

Row | Molecule | IC50 (HIV-1 NL4-3 DTV) | IC50 (X4-tropic HIV-1 NL4-3) | inhibition of fusion peptide-induced hemolysis [1] | cytotoxic effect on THP-1 cells [2] | changes of behaviour ([3]; 24 hours observation) | macroscopic necropsy / pathological examination ([3]; sacrificed after 24 hours) | clinical signs (motility, dyspnea, ataxia, muscle tone) ([3]; tail vein, 24 hours observation) | IC50 DTV (HIV-1 infection of P4-CCR5 cells) [4] | IC50 NL4-3 (HIV-1 infection of P4-CCR5 cells) [5]
1 | CC[C@H](C)[C@H](NC(=O)[C@H](C)NC(=O)[C@H](CCC(=O)O)NC(=O)[C@@H](N)CC(C)C)C(=O)N1CCC[C@H]1C(=O)N[C@H]1CSSC[C@@H](C(=O)N[C@H](C(=O)N[C@@H](Cc2ccccc2)C(=O)N[C@@H](Cc2ccccc2)C(=O)N[C@@H](CC(N)=O)C(=O)N[C@@H](CCCCN)C(=O)N2CCC[C@H]2C(=O)N[C@@H](Cc2ccccc2)C(=O)N[C@H](C(=O)N[C@@H](Cc2ccccc2)C(=O)O)C(C)C)C(C)C)NC(=O)[C@@H]2CCCN2C(=O)[C@@H]2CCCN2C(=O)[C@H]([C@@H](C)CC)NC(=O)[C@H](CO)NC1=O [VIR-164] (H-LEAIPCSIPPCVFFNKPFVF-OH; disulfide 6-11) | 0.37 µM | 0.34 µM | Dose dependent inhibition | free of any cytotoxic effect; also recorded: did not exhibit a cytotoxic effect | – | – | – | – | –
2 | CC[C@H](C)[C@H](NC(=O)[C@H](C)NC(=O)[C@H](CCC(=O)O)NC(=O)[C@@H](N)CC(C)C)C(=O)N1CCC[C@H]1C(=O)N[C@H]1CSSC[C@@H](C(=O)N[C@@H](Cc2ccccc2)C(=O)N[C@@H](C)C(=O)N[C@@H](Cc2ccccc2)C(=O)N[C@@H](CC(N)=O)C(=O)N[C@@H](CCCCN)C(=O)N2CCC[C@H]2C(=O)N[C@@H](Cc2ccccc2)C(=O)N[C@H](C(=O)N[C@@H](Cc2ccccc2)C(=O)O)C(C)C)NC(=O)[C@@H]2CCCN2C(=O)[C@@H]2CCCN2C(=O)[C@H]([C@@H](C)CC)NC(=O)[C@H](CO)NC1=O [VIR-165] | 0.14 µM | – | Dose dependent inhibition | free of any cytotoxic effect; also recorded: did not exhibit a cytotoxic effect | – | – | – | – | –
3 | CC[C@H](C)[C@H](NC(=O)[C@H](C)NC(=O)[C@H](CCC(=O)O)NC(=O)[C@@H](N)CC(C)C)C(=O)N1CCC[C@H]1C(=O)N[C@@H](CCSC)C(=O)N[C@@H](CO)C(=O)N[C@H](C(=O)N1CCC[C@H]1C(=O)N1CCC[C@@H]1C(=O)N[C@@H](CCC(=O)O)C(=O)N[C@H](C(=O)N[C@@H](C)C(=O)N[C@@H](Cc1ccccc1)C(=O)N[C@@H](CC(N)=O)C(=O)N[C@@H](CCCCN)C(=O)N1CCC[C@H]1C(=O)N[C@@H](Cc1ccccc1)C(=O)N[C@H](C(=O)N[C@@H](Cc1ccccc1)C(=O)O)C(C)C)C(C)C)[C@@H](C)CC [VIR-121, LEAIPMSIPpEVAFNKPFVF] (H-LEAIPMSIP[dP]EVAFNKPFVF-OH) | 1.79 µM | 0.37 µM | – | – | No changes of behaviour | did not reveal any abnormalities; also recorded: No findings | no signs of reduced or increased motility, dyspnea, ataxia, nor a reduced or increased muscle tone | – | –
4 | [NMeL]EAIPMSIPPEFLFGKPFVF [VIR-512] | – | – | – | – | – | – | – | 0.615 µM | 0.138 µM
